Results from patent EP4775570A1, “CYP11A1 INHIBITOR, PREPARATION METHOD THEREFOR AND USE THEREOF” (Shenzhen Zhongge Biological Technology Co., Ltd., priority 2023, dated 2025).

What was measured:
[1] = tested on: VCaP castration-resistant prostate cancer subcutaneous transplant tumor model; test: In vivo pharmacodynamic study in a VCaP castration-resistant prostate cancer subcutaneous transplant tumor model; parameters: species or system SCID-Beige mice; conditions: 30mg/kg BID oral + prednisone 0.6mg/kg QD, castrated tumor-bearing mice, 32 days
Procedure: Animals: experimental male SCID-Beige mice, 6-8-weeks old or 18-22g, provided by Beijing Vital River Laboratory Animal Technology Co., Ltd.
Experiment procedures: all experimental animals were kept within specific-pathogen-free animal barrier facility, and allowed 3 days of adaptation before the experiment began. VCaP tumor cells were in vitro cultured as monolayer in DMEM complete medium (with 10% fetal bovine serum and 1% penicillin & streptomycin) at 37°C in air containing 5% CO2. Tumor cells were routinely passaged 2-3 times a week, and cells in exponential growth phase were collected and counted for tumor cell inoculation. 10x10^6 VCaP tumor cells were resuspended in 0.1ml PBS, thoroughly mixed with 0.1ml matrigel, and then inoculated subcutaneously on the right flank of each mouse to form a tumor. The tumor-bearing mice were allowed to develop to an average tumor volume of around 200mm^3 and underwent castration surgery. The tumor volumes of all mice were measured after one week of castration surgery. Suitable tumor-bearing mice were selected and assigned randomly into the following groups: blank control group, prednisone (0.6mg/kg, QD) group, abiraterone (33.73mg/kg, QD) + prednisone (0.6mg/kg, QD) group, ODM-208 (30mg/kg, BID) + prednisone (0.6mg/kg, QD) group, and the compound of the present disclosure (30mg/kg, BID) + prednisone (0.6mg/kg, QD) group. Animals in blank control group were orally administered with vehicles (0.5%MC+0.5%Tween80 and 0.5%CMCNa), and the animals in other groups were orally administered with corresponding compound. The experiment lasted for 32 days, and during the experiment, the animals in each group were measured for tumor volume and body weight twice a week.

[2] = PK study, intravenous and oral administration, plasma LC-MS/MS; format: in vivo; conditions: both sexes, 5 mg/kg, oral administration of 5 mpk, species not given (ICR mice or SD Rat); for bioavailability: read-out: bioavailability (F)
Procedure: ICR mice (male/female, total 6 animals) were assigned to two groups for oral administration and intravenous administration, respectively, with 3 mice in each group. Before administration, the animals were fasted for 10-14 hours, with water available ad lib.
SD Rat (male/female, total 6 animals) were assigned to two groups for oral administration and intravenous administration, respectively, with 3 mice in each group. Before administration, the animals were fasted for 10-14 hours, with water available ad lib.
The compounds to be tested were weighed out in accordance with intended dosage, formulated with vehicles (5% DMSO + 10% Solutol + 85% physiological saline) to dosage form at appropriate concentrations (administered intravenously and orally in rats or mice at a volume of 5 mL/kg and 10 mL/kg, respectively). The dosage form for intravenous injection is a clear solution, and the dosage form for oral administration is a clear solution or homogenous suspension.
Administration to animals was conducted through intravenous injection and oral gavage, and blood samples were collected at 0.033, 0.083, 0.25, 0.5, 1, 2, 4, 8, and 24 hours after intravenous injection, or at 0.083, 0.25, 0.5, 1, 2, 4, 6, 8, and 24 hours after oral administration. After centrifugation of whole blood samples at 4°C and 6,800g for 6 minutes, the upper layers of plasma were stored at -80°C refrigerator before analysis.
The DMSO stock solutions of the substance to be tested were diluted with methanol or acetonitrile solution to serial working solutions and added to blank plasma matrix to formulate samples for standard curve and quality control. An appropriate volume of plasma sample was added with appropriate fold of methanol or acetonitrile containing internal standards, according to response, for protein precipitation. After centrifugation of all samples at 4°C and 18,000g for 10 min, appropriate volumes of supernatant were taken for LC-MS/MS analysis.
Plasma drug concentration-time curves were plotted in accordance with tested concentrations, and pharmacokinetic parameters were calculated based on non-compartmental model using WinNonlin software, including half-life (T1/2), area under the drug concentration-time curve (AUC0-t), clearance rate (CL), steady-state distribution volume (Vss), bioavailability (F), etc.

[3] = tested on: testosterone, progesterone, corticosterone; test: LC-MS detection of testosterone, progesterone and corticosterone in mouse tumors and adrenal glands; format: in vivo; conditions: mouse tumors and adrenal glands, VCaP model
From the text: • Mouse tumors were homogenized using PBS in a 1:5 ratio (tumor weight (g): PBS volume (mL), w/v); • Mouse adrenal glands were homogenized using PBS in a 1:10 ratio (adrenal gland weight (g): PBS volume (mL), w/v); • Standard sample: testosterone (LGC, C17322500), progesterone (MCE, HY-N0437), adrenal ketone (MCE, HY-B1618), and standard solution of test substance.
Experiment procedures: since the three markers, i.e., testosterone, progesterone, and adrenal ketone, are all endogenous substances and present in the blank matrix as well, PBS was alternatively used as matrix in the production of the standard curve.
Testosterone: multiple reaction monitoring (MRM) method was used for detecting the concentrations of testosterone in mouse tumors and adrenal glands. Mass spectrum: AB Sciex Triple Quad 6500+; liquid chromatography: Shimadzu 40A, column: Waters XBridge BEH C18 2.5 µm 2.1*50mm, testosterone ion pair: 289.4/97.2. Both tumor and adrenal tissues were treated with methanol as precipitant and tolbutamide as internal standard for sample pretreatment, with linear range in 50-50,000pg/mL.
Progesterone and corticosterone: multi-reaction detection method (MRM) was used for detecting the concentrations of progesterone and corticosterone in mouse tumors and adrenal glands. Mass spectrum: AB Sciex Triple Quad 6500+; liquid chromatography: Shimadzu 40A, column: Waters XSelect HSS T3 2.5 µm 2.1*50mm, progesterone ion pair: 315.4/97.2, adrenone ion pair: 347.4/121.3. For tumor tissues, acetonitrile was used as precipitant and propranolol diclofenac as internal standard for sample pretreatment, with linear ranges in 0.05-10 ng/mL of progesterone and 0.10-20 ng/mL of corticosterone. For adrenal tissues, methanol was used as precipitant and propranolol diclofenac as internal standard for sample pretreatment, with linear ranges in 5-2,500 ng/mL of progesterone and 5-2,500 ng/mL of corticosterone.

| Compound | tumor inhibition rate TGI [1] | AUC [2] | Cmax [2] | bioavailability [2] | half-life ([2]; read-out: half-life (t1/2) (converted)) | secretion of testosterone, progesterone and corticosterone in tumors and adrenal glands (in words) [3] |
| --- | --- | --- | --- | --- | --- | --- |
| CS(=O)(=O)N1CCC(COc2coc(CN3Cc4ccccc4C3)cc2=O)CC1 [ODM-208, reference compound] | 85% | 1.31 µg·h/mL | 0.807 µg/mL | 59% | 1.8 h | significantly inhibits |
| Cn1c(CN2Cc3ccccc3C2)c(F)cc(C=CC2CCN(S(C)(=O)=O)CC2)c1=O [compound 113] |  | > 1.7 µg·h/mL | > 1 µg/mL | > 60% |  |  |
